Measurements taken from US20160324875A1, “CUTANEOUS COMPOSITION COMPRISING VITAMIN D ANALOGUE AND A MIXTURE OF SOLVENT AND SURFACTANTS” (LEO PHARMA A/S, priority 2009, published 2016).
“Also recorded” adds a separate entry of the source.

How the values were obtained:
[1] = one study, Hannuksela et al. 1975; cited from earlier work
[2] = tested on: gene encoding cathelicidin; assay: induction of the gene encoding cathelicidin in reconstructed human epidermis (qPCR); type: cell-based; settings: glycerol 5% vs 10% or 15% by weight in calcipotriol composition
Text: In psoriasis, the level of cathelicidin is increased in lesional skin of psoriasis patients. […] This finding has been utilized to develop an assay in which the uptake and biological activity of calcipotriol in human keratinocytes from the tested compositions has been determined by measuring the level of induction of the gene encoding cathelicidin.
In the assay, composition 1A prepared as described in Example 1 above was applied topically in triplicate on reconstructed human epidermis consisting of normal human keratinocytes cultured for 12 days on 0.5 cm^2 polycarbonate filters (available from SkinEthic® Laboratories, Nice, France) in an amount of […]. The tissue was treated for two days followed by separation of the epidermis from the polycarbonate filter and snap-frozen in liquid nitrogen. RNA was extracted from the cells and cDNA synthesized by conventional procedures. Quantitative real-time PCR (qPCR) was then performed using the following assays from Applied Biosystems: CAMP Hs0018038_ml and GAPDH Hs99999905_ml. The expression levels of cathelicidin were normalized to GAPDH and a relative quantification was made by comparison with Daivonex® ointment.

IL-la = assay: release of IL-1a from calcipotriol ointment containing glycerol; settings: 5%, 10%, 15% by weight of glycerol in a calcipotriol ointment
[3] = skin diffusion experiment (Franz diffusion cells); type: in vitro ADME, pig; settings: from a composition of the invention, 4 mg/cm^2, 21 hours, FIG. 3, % of applied dose
Method: To investigate the skin penetration and permeation of calcipotriol from compositions of the invention, a skin diffusion experiment was conducted. Full thickness skin from pig ears was used in the study. The ears were kept frozen at -18° C. before use. On the day prior to the experiment the ears were placed in a refrigerator (5±3° C.) for slow defrosting. On the day of the experiment, the hairs were removed using a veterinary hair trimmer. The skin was cleaned for subcutaneous fat using a scalpel and two pieces of skin were cut from each ear and mounted on Franz diffusion cells in a balanced order.
Static Franz-type diffusion cells with an available diffusion area of 3.14 cm^2 and receptor volumes ranging from 8.6 to 11.1 ml were used in substantially the manner described by T. J. Franz, “The finite dose technique as a valid in vitro model for the study of percutaneous absorption in man”, in Current Problems in Dermatology, 1978, J. W. H. Mall (Ed.), Karger, Basel, pp. 58-68. The specific volume was measured and registered for each cell. A magnetic bar was placed in the receptor compartment of each cell. […]
The in vitro skin permeation of each test composition was tested in 6 replicates (i.e. n=6). […] A glass spatula was used for the application, and the residual amount of the composition was determined so as to give the amount of the composition actually applied on the skin. […]

## CC(O)CO (centres unmarked) [propylene glycol]
[1]
  number of irritant reactions: 12.5%

## OCC(O)CO [glycerol]
[2]
  expression of cathelicidin: increased with a low amount of glycerol
IL-la
  release of IL-la: reduce the release of IL-la in a dose-dependent manner

## C=C1/C(=C\C=C2/CCC[C@]3(C)[C@@H]([C@H](C)/C=C/[C@@H](O)C4CC4)CC[C@@H]23)C[C@@H](O)C[C@@H]1O [calcipotriol, Calcipotriol]
[3]
  calcipotriol penetrated into viable layers of the skin (dermis and epidermis): a significant amount
  calcipotriol permeated through the skin into the receptor fluid: Very little; also recorded: only a minor amount
